Assay [1] concerns the target T1, SARS-CoV-2 PLpro (nsp3 1564–1878) (Severe acute respiratory syndrome coronavirus 2, UniProt P0DTD1). Nature of the assay: biochemical. Also on record: FRET-quenched peptide (Pro3) cleavage by PLpro, 10 min pre-incubation, slope over 20 min, normalised to no-compound control. The conditions noted are these: high concentration screen, read-out: % of control remaining.

In assay [2] the target is T1, SARS-CoV-2 PLpro (nsp3 1564–1878). Nature of the assay: biochemical. The conditions noted are these: low concentration screen, read-out: % of control remaining. Further details: FRET-quenched peptide (Pro3) cleavage by PLpro, 10 min pre-incubation, slope over 20 min, normalised to no-compound control.

Where a name gives a salt, the structure may show the parent alone. Read-outs that look alike come from different tables or passages of the source.

For the compound `Clc1cccc(Cl)c1NC1=NCCN1` [Clonidine hydrochloride], the remaining activity at 3.75 µM in assay [1] (Well no.=138) came to 98.8%. Also, in assay [2] (Well no.=138), the remaining activity at 1.25 µM amounted to 95.3%.
In the case of `Clc1cccc(Cl)c1NC1=NCCN1` [Clonidine.HCl], in assay [1] (Well no.=1691), the remaining activity at 3.75 µM came out at 94.2%. Also, the remaining activity at 1.25 µM in assay [2] (Well no.=1691) turned out to be 96%.
Turning to `C[C@@H]1CCC[C@H](C)N1NC(=O)c1ccc(Cl)c(S(N)(=O)=O)c1` [Clopamide], the remaining activity at 3.75 µM in assay [1] (Well no.=1773) worked out at 93.8%. Besides, the remaining activity at 1.25 µM in assay [2] (Well no.=1773) is 96%.
As for `COC(=O)[C@H](c1ccccc1Cl)N1CCc2sccc2C1` [Clopidogrel (hydrogen sulfate)], the remaining activity at 3.75 µM in assay [1] (Well no.=7563) was 96.5%; in assay [1] (Well no.=7926), 98.2%. Further, the remaining activity at 1.25 µM in assay [2] (Well no.=7563) worked out at 95.7%; in assay [2] (Well no.=7926), 95.8%.
Turning to `COC(=O)[C@H](c1ccccc1Cl)N1CCC2SC(=O)C=C2C1` (stereo partly shown) [Clopidogrel thiolactone], the remaining activity at 3.75 µM in assay [1] (Well no.=8562) came to 95.5%. For the same compound, the remaining activity at 1.25 µM in assay [2] (Well no.=8562) turned out to be 95.8%.
Consider `COC(=O)[C@H](c1ccccc1Cl)N1CCc2sccc2C1` [Clopidogrel], for which, in assay [1] (Well no.=2277), the remaining activity at 3.75 µM was determined as 93%. In assay [2] (Well no.=2277), the remaining activity at 1.25 µM was 90.2%.
As to `C#CCN(C)CCCOc1ccc(Cl)cc1Cl` [Clorgyline hydrochloride], the remaining activity at 3.75 µM in assay [1] (Well no.=878) worked out at 102%. Further, the remaining activity at 1.25 µM in assay [2] (Well no.=878) was 101%.
With `Nc1cc(C(Cl)=C(Cl)Cl)c(S(N)(=O)=O)cc1S(N)(=O)=O` [Clorsulon], the remaining activity at 3.75 µM in assay [1] (Well no.=5298) came to 87.7%; in assay [1] (Well no.=7310) it was 97.7%. Further, the remaining activity at 1.25 µM worked out at 87.3% in assay [2] (Well no.=5298) and 99.9% in assay [2] (Well no.=7310).
Turning to `CN1CCN(C2=Nc3ccccc3Sc3ccc(Cl)cc32)CC1` [Clothiapine], in assay [1] (Well no.=1815), the remaining activity at 3.75 µM stood at 99.6%. Further, in assay [2] (Well no.=1815), the remaining activity at 1.25 µM is 102%.
As for `Clc1ccccc1C(c1ccccc1)(c1ccccc1)n1ccnc1` [Clotrimazole], the remaining activity at 3.75 µM in assay [1] (Well no.=372) amounted to 99.9%. Besides, in assay [2] (Well no.=372), the remaining activity at 1.25 µM was determined as 97.9%.
For `Cc1onc(-c2ccccc2Cl)c1C(=O)N[C@@H]1C(=O)N2[C@@H]1SC(C)(C)[C@@H]2C(=O)O` [Cloxacillin (sodium monohydrate)], the remaining activity at 3.75 µM in assay [1] (Well no.=7556) was found to be 103%. For the same compound, the remaining activity at 1.25 µM in assay [2] (Well no.=7556) was 101%.
For the compound `CN1CCN(C2=Nc3cc(Cl)ccc3Nc3ccccc32)CC1` [Clozapine], the remaining activity at 3.75 µM in assay [1] (Well no.=182) stood at 96.2%; in assay [1] (Well no.=1813) it was 95.3%; in assay [1] (Well no.=6569), 97.3%. The remaining activity at 1.25 µM was found to be 99.6% in assay [2] (Well no.=182), 98.4% in assay [2] (Well no.=1813) and 98.5% in assay [2] (Well no.=6569).
On to `CC(C)c1nc(CN(C)C(=O)N[C@@H](CCN2CCOCC2)C(=O)N[C@H](CC[C@H](Cc2ccccc2)NC(=O)OCc2cncs2)Cc2ccccc2)cs1` [Cobicistat (GS-9350)], for which, in assay [1] (Well no.=5213), the remaining activity at 3.75 µM is 102%. Also, the remaining activity at 1.25 µM in assay [2] (Well no.=5213) was 102%.
As for `COc1ccc(/C=C\c2cc(OC)c(OC)c(OC)c2)cc1O` [Combretastatin A4], in assay [1] (Well no.=5540), the remaining activity at 3.75 µM was 102%. The remaining activity at 1.25 µM in assay [2] (Well no.=5540) stood at 101%.
As to `CCN1C[C@]2(COC)CC[C@H](O)[C@]34C1C(C[C@H]23)[C@@]1(O)C[C@H](OC)[C@H]2C[C@@H]4[C@@H]1[C@H]2OC(C)=O` [Condelphine], the remaining activity at 3.75 µM in assay [1] (Well no.=3107) stood at 92.8%. Moreover, the remaining activity at 1.25 µM in assay [2] (Well no.=3107) amounted to 93.3%.
As to `C[C@H]1[C@H]2CC[C@H]3[C@@H]4CC=C5C[C@@H](N(C)C)CC[C@]5(C)[C@H]4CC[C@]23CN1C` [Conessine], the remaining activity at 3.75 µM in assay [1] (Well no.=3100) stood at 93.7%. Moreover, the remaining activity at 1.25 µM in assay [2] (Well no.=3100) turned out to be 94%.
Take `Nc1c(/N=N/c2ccc(-c3ccc(/N=N/c4cc(S(=O)(=O)O)c5ccccc5c4N)cc3)cc2)cc(S(=O)(=O)O)c2ccccc12` [Congo Red]: in assay [1] (Well no.=8614), the remaining activity at 3.75 µM was found to be 104%. The remaining activity at 1.25 µM in assay [2] (Well no.=8614) was 101%.
Turning to `Cc1nc2c([nH]1)-c1ccccc1N(C(=O)c1ccc(NC(=O)c3ccccc3-c3ccccc3)cc1)CC2` [Conivaptan (hydrochloride)], the remaining activity at 3.75 µM in assay [1] (Well no.=6463) stood at 101%. Besides, the remaining activity at 1.25 µM in assay [2] (Well no.=6463) was 99.7%.
For the compound `c1c2c(cc3c1OCO3)-c1cc3ccc4c(c3c[n+]1CC2)OCO4` [Coptisine (chloride)], the remaining activity at 3.75 µM in assay [1] (Well no.=8071) is 101%. Besides, the remaining activity at 1.25 µM in assay [2] (Well no.=8071) stood at 106%.
For the compound `Nc1ncnc2c1ncn2[C@@H]1O[C@H](CO)C[C@H]1O` [Cordycepin], the remaining activity at 3.75 µM in assay [1] (Well no.=7860) turned out to be 95.9%. In addition, the remaining activity at 1.25 µM in assay [2] (Well no.=7860) stood at 101%.
Consider `C[C@]12CCC(=O)C=C1CC[C@@H]1[C@@H]2CC[C@@]2(C)[C@H]1CC[C@]2(O)C(=O)CO` [Cortexolone], for which the remaining activity at 3.75 µM in assay [1] (Well no.=1509) was found to be 93%. Moreover, the remaining activity at 1.25 µM in assay [2] (Well no.=1509) worked out at 93.1%.
Take `C[C@]12C[C@H](O)[C@H]3[C@@H](CCC4=CC(=O)CC[C@@]43C)[C@@H]1CC[C@@H]2C(=O)CO` [Corticosterone]: the remaining activity at 3.75 µM in assay [1] (Well no.=285) amounted to 92.1%; in assay [1] (Well no.=1928), 96.3%; in assay [1] (Well no.=7075), 105%. Also, the remaining activity at 1.25 µM in assay [2] (Well no.=285) is 93.6%; in assay [2] (Well no.=1928), 99.3%; in assay [2] (Well no.=7075), 104%.
In the case of `CC(=O)OCC(=O)[C@@]1(O)CC[C@H]2[C@@H]3CCC4=CC(=O)CC[C@]4(C)[C@H]3C(=O)C[C@@]21C` [Cortisone 21-acetate], the remaining activity at 3.75 µM in assay [1] (Well no.=172) is 92.8%. In addition, in assay [2] (Well no.=172), the remaining activity at 1.25 µM was found to be 92.9%.
As to `CC(=O)OCC(=O)[C@@]1(O)CC[C@H]2[C@@H]3CCC4=CC(=O)CC[C@]4(C)[C@H]3C(=O)C[C@@]21C` [Cortisone (acetate)], the remaining activity at 3.75 µM in assay [1] (Well no.=6321) turned out to be 105%. Further, the remaining activity at 1.25 µM in assay [2] (Well no.=6321) was found to be 106%.
For the compound `C[C@]12CCC(=O)C=C1CC[C@@H]1[C@@H]2C(=O)C[C@@]2(C)[C@H]1CC[C@]2(O)C(=O)CO` [Cortisone], the remaining activity at 3.75 µM came out at 93.5% in assay [1] (Well no.=381), 101% in assay [1] (Well no.=6485) and 100% in assay [1] (Well no.=7431). Also, the remaining activity at 1.25 µM was 90.6% in assay [2] (Well no.=381), 101% in assay [2] (Well no.=6485) and 102% in assay [2] (Well no.=7431).
In the case of `C[C@]12CCC(=O)C=C1CC[C@@H]1[C@@H]2CC[C@@]2(C)[C@H]1CC[C@]2(O)C(=O)CO` [Cortodoxone], in assay [1] (Well no.=7330), the remaining activity at 3.75 µM was found to be 98%. The remaining activity at 1.25 µM in assay [2] (Well no.=7330) is 98.9%.
`COc1cc2c(cc1OC)[C@H]1[C@@H](C)c3ccc(OC)c(OC)c3CN1CC2` [Corydaline]: the remaining activity at 3.75 µM in assay [1] (Well no.=3252) came to 102%. In addition, in assay [2] (Well no.=3252), the remaining activity at 1.25 µM is 101%.

Values taken from PMC8286840, “Identifying SARS-CoV-2 antiviral compounds by screening for small molecule inhibitors of Nsp3 papain-like protease” (Biochemical Journal, 2021).
